Measurements taken from PMC11173529, “Structure–Activity Relationship Studies in a Series of Xanthine Inhibitors of SLACK Potassium Channels” (Molecules, 2024).

How the values were obtained:
Maxi-K α1/β3 = target: T1, Maxi-K α1/β3 (Homo sapiens, UniProt Q12791); assay: Tl+-flux selectivity panel in HEK-293 cells: Maxi-K α1/β3; type: cell-based; settings: HEK293, 10 µM test compound, relative to control paxilline, read-out: Percent Inhibition ± SEM
T1 construct: expressed in transfected cells; host or cells: HEK293
Description: (§1) With a handful of analogs that offered improved SLACK potency relative to hit compound 8, we next proceeded to investigate the ancillary pharmacology of such compounds, both with respect to other Slo family members as well as versus a spectrum of diverse ion channels (Table 5). Thus, we screened four compounds (32, 48, 70, and 71) at 10 µM in our in-house selectivity panel of Tl^+-flux assays in HEK-293 cells stably expressing the target of interest. […] Some valuable SAR was noted as well. […] Reduction of inhibition at Maxi-K α1/β4 also followed. This SAR will be important to bear in mind for continued optimization within this series. […] Of particular note is the lack of significant hERG activity in this series, as activity versus that counter-target has been an issue with other SLACK inhibitors.
(§2) Stably transfected monoclonal HEK293 cell lines expressing Slick, Maxi-K α1/β3, Maxi-K α1/β4, CaV3.2, GIRK 1/2, KV2.1, KV7.2, NaV1.7, and TASK-1 were generated as previously described. Stably transfected monoclonal HEK293 cell lines expressing hERG were generated as previously described. CHO-K1 cells expressing human Slack and disease-associated human Slack mutations, G288S and A934T, were generated by transfecting a PiggyBac TRE mammalian expression vector (VectorBuilder, Chicago, IL, USA) containing KCNT1. FuGENE 6 (Promega, Madison, WI, USA) transfection reagent and protocol, together with Opti-MEM (Thermo Fisher Scientific, Walkham, MA, USA), were utilized.
(§3) The Tl^+ flux assays were conducted as previously described with modifications optimized for individual cell lines as described below. Following removal of cell culture media, cells were loaded with Tl^+-sensitive dye loading solution containing Thallos-AM (ION Biosciences, San Marcos, TX, USA), 1.25 mM Probenecid, and 0.3% Pluronic F-127 (MilliporeSigma, Burlington, MA, USA), in assay buffer comprised of Hanks Balanced Salt Solution (HBSS) (Thermo Fisher Scientific, Waltham, MA, USA) and 20 mM HEPES (Corning, Corning, NY, USA) at room temperature for one-hour. Dye loading solution was replaced with 20 μL/well of assay buffer prior to assaying. Cell plates were then loaded onto a Panoptic kinetic imaging plate reader (WaveFront Biosciences, Franklin, TN, USA). Data were acquired at 5 Hz (excitation 482 ± 35 nm, emission 536 ± 40 nm) for 10 s, at which time 20 μL/well of test compounds in assay buffer at 2-fold above the desired final concentration was added and allowed to incubate for 120 s. Next, 10 μL/well of Tl^+ stimulus buffer (129 mM Na gluconate, 1.2 mM CaSO4, 1 MgSO4, 1 mM Na2HPO4, 4.17 mM NaHCO3, 5.56 mM glucose, 2.5 mM Tl2SO4, and 10 mM HEPES pH 7.3) was added. Imaging was concluded after an additional 120 s.

GIRK 1/2 = target: T2, GIRK 1/2 (Homo sapiens, UniProt P48051+P48549); assay: Tl+-flux selectivity panel in HEK-293 cells: GIRK 1/2; type: cell-based; settings: HEK293, 10 µM test compound, relative to control SCH23390, read-out: Percent Inhibition ± SEM
T2 construct: expressed in transfected cells; host or cells: HEK293
T2 sequence (P48549 1-501): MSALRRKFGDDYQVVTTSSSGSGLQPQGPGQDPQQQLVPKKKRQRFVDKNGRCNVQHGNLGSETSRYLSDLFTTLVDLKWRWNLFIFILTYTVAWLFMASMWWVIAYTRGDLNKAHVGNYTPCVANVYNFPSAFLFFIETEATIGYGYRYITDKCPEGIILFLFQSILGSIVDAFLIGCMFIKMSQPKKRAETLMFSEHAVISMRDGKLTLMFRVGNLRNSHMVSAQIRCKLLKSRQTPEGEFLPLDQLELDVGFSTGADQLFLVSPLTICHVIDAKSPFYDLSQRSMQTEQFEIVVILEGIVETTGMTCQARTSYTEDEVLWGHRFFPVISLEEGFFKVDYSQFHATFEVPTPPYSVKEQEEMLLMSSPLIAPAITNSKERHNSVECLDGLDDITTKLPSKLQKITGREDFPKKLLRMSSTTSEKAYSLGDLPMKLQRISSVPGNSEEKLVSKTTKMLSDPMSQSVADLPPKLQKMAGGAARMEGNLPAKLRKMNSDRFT
T2 sequence (P48051 1-423): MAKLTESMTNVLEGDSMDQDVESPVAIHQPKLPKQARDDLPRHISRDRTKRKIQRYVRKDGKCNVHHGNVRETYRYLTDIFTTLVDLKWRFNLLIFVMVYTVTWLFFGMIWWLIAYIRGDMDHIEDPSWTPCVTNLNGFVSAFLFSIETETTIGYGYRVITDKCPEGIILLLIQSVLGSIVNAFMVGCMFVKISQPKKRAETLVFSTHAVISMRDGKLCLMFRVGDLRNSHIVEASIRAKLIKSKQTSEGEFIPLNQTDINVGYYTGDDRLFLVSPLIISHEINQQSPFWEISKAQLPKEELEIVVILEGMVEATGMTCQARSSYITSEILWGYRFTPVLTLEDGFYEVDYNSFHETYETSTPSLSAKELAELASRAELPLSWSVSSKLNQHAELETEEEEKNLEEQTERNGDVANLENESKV
Description: as §1, §2, §3

T1 sequence (Q12791 whole entry): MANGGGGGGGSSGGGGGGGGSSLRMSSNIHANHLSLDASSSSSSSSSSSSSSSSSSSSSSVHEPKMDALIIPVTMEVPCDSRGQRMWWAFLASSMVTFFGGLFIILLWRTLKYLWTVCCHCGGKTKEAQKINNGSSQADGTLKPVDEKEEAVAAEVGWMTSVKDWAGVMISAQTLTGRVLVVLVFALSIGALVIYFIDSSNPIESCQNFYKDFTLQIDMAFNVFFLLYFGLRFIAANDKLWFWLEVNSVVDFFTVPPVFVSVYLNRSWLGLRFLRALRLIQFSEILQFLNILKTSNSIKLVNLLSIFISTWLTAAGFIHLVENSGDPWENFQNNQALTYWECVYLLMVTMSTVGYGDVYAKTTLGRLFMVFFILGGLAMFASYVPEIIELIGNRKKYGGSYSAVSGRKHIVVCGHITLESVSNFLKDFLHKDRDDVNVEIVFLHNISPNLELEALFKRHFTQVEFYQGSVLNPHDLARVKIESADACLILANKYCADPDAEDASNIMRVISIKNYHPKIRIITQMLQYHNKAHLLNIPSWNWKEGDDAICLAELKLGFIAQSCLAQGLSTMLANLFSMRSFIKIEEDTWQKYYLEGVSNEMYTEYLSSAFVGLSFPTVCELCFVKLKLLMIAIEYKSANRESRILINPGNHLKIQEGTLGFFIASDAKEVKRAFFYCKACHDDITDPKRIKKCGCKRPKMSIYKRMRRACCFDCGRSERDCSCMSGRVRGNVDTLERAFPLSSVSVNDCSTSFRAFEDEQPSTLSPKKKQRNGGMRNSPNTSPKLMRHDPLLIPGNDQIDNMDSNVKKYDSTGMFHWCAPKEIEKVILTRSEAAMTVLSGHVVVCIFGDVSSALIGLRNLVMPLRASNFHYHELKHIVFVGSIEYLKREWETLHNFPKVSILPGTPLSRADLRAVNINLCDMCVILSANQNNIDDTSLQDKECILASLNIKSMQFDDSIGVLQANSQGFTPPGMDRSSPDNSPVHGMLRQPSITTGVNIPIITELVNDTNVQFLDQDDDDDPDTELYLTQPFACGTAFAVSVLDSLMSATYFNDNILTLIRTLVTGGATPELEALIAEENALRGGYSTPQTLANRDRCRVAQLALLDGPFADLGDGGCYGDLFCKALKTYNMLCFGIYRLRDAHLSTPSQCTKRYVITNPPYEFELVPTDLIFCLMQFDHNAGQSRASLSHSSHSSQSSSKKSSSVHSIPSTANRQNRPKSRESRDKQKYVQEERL
T1 sequence (Q9NPA1 whole entry partner): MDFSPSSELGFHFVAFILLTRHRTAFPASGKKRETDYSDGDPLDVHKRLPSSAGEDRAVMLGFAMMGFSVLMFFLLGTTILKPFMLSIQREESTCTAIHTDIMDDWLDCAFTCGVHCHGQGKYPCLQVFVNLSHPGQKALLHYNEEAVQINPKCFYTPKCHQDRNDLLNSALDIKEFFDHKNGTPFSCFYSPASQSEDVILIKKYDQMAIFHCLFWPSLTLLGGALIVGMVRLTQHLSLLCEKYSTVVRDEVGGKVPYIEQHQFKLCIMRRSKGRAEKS

SMILES: COc1cccc(Cn2c(=O)c3c(nc(N(C)Cc4ccccc4)n3C)n(C)c2=O)c1 [Analog 32]
- inhibition at 10 µM (Maxi-K α1/β3): 79 ± 1.4%
- inhibition at 10 µM (GIRK 1/2): 19 ± 1.7%

SMILES: CN(Cc1cccc(F)c1)c1nc2c(c(=O)n(Cc3ccccc3)c(=O)n2C)n1C [Analog 48]
- inhibition at 10 µM (Maxi-K α1/β3): 63 ± 1.2%
- inhibition at 10 µM (GIRK 1/2): 32 ± 3%

SMILES: CCCCN(Cc1ccccc1)c1nc2c(c(=O)n(Cc3ccccc3)c(=O)n2C)n1C [Analog 70]
- inhibition at 10 µM (Maxi-K α1/β3): 34 ± 2.9%
- inhibition at 10 µM (GIRK 1/2): 9.2 ± 1.4%

SMILES: Cn1c(N(Cc2ccccc2)CC2CC2)nc2c1c(=O)n(Cc1ccccc1)c(=O)n2C [Analog 71]
- inhibition at 10 µM (Maxi-K α1/β3): 17 ± 5.2%
- inhibition at 10 µM (GIRK 1/2): 12 ± 0.5%
